According to article PMC7162859 (Scientific Reports, 2020):

What was measured:
orthotopic GBM1A tumors [1] = test: Pharmacodynamics: monopolar spindle formation in orthotopic GBM1A tumors; type: in vivo, NSG mice; details: single ip dose 10 mg/kg each drug; 8 hours
Procedure: Female NSG mice were intracerebrally injected with 500,000 GBM1A cells at coordinates X = 1.5 mm, Y = 1.5 mm and Z = 2.5 mm relative to the bregma, and tumor growth was monitored by bioluminescence imaging. After 4 weeks (tumor size of about 2 × 10^9 photons/sec), animals were randomized to receive single ip dose of microemulsion vehicle, 10 mg/kg elacridar, 10 mg/kg ispinesib, or a combination of 10 mg/kg ispinesib and 10 mg/kg elacridar (n = 8–10). At 8 hours following treatment, mice were perfused and whole brains were isolated. The samples were processed for immunofluorescence by staining for tubulin with an alpha-tubulin antibody (Cell signaling, Cat#2125) and counter staining with DAPI for visualizing nuclei. Images were scanned and counted for cells with monopolar spindles.

Bcrp = system: Bcrp; set-up: method as in PMID 15930306; details: read-out: EC50 (Bcrp inhibition); cited from earlier work
P-gp = details: read-out: EC50 (P-gp inhibition); cited from earlier work
orthotopic GBM1A tumors [2] = type: in vivo; details: 10 mg/kg ip each drug once every 4 days for 28 days
Procedure: Female NSG mice were intracranially implanted with 500,000 luciferase expressing GBM1A cells (transduced with lentiviral particles expressing GFP-Luciferase). After 7 days, animals were randomized into four groups and ip administered with microemulsion vehicle, 10 mg/kg elacridar, 10 mg/kg ispinesib, or a combination of 10 mg/kg ispinesib and 10 mg/kg elacridar, once every 4 days for 28 days (n = 10). The dosing schedule of once every 4 days was based on our previously publication with ispinesib. Tumor growth was monitored by bioluminescence imaging and animals were followed for survival.
The progression of tumor growth was monitored by bioluminescence imaging (BLI) using an IVIS system. Mice that underwent stereotactic injection with GFP-luciferase expressing GBM1A cells were imaged twice a week. Ten minutes prior to imaging, mice were intraperitoneally injected with d-luciferin at 75 mg/kg body weight (3 mL/kg injection volume). Animals were immobilized using 1.5% − 3.0% isoflurane provided by nose cones within the imager and were kept warm using a heated stage set at 37 °C during the imaging procedure. Following imaging for about 5 minutes, animals were removed from the IVIS chamber and monitored until they fully recovered from anesthesia.

[3] = set-up: method as in PMID 23334925; details: following ip dosing; cited from earlier work

Question: For `COc1cc2c(cc1OC)CN(CCc1ccc(NC(=O)c3cccc4c(=O)c5cccc(OC)c5[nH]c34)cc1)CC2` [Elacridar, N-[4-[2-(6,7-dimethoxy-3,4-dihydro-1H-isoquinolin-2-yl)ethyl]phenyl]-5-methoxy-9-oxo-10H-acridine-4-carboxamide], which “monopolar spindles in tumor core (tubulin/DNA staining)” value (orthotopic GBM1A tumors [1]) is on record?
Answer: normal distribution of DNA

Question: What about the EC50 (Bcrp) of the same compound?
Answer: ~300 nM

Question: What about the “tumor doubling time (bioluminescence, single exponential fit)” value (orthotopic GBM1A tumors [2]; days 7–37) of the same compound?
Answer: 6.2 days

Question: What about the median survival (orthotopic GBM1A tumors [2]; vehicle 61 days) of the same compound?
Answer: 62 days

Question: And the half-life [3]?
Answer: 3.2 h
